Measurements from patent publication US9115129B2, “Substituted pyrido[2,3-B]pyrazines as IP receptor agonists” (Novartis AG, priority 2012, dated 2015).
pEC50: −log10 of the molar value.

These molecules were tested against T1, IP receptor (Homo sapiens, UniProt P43119) (assay: cAMP accumulation in CHO cells stably expressing the IP receptor (CHO-IP), Perkin Elmer AlphaScreen assay). Conditions: agonist activity, 1 hour at room temperature.
T1 construct: expressed in transfected cells; host or cells: CHO cells stably expressing the IP receptor (CHO-IP)
Assay type: cell-based
Method: Activity of compounds at the IP receptor (IP receptor) is assessed by measuring cAMP accumulation in CHO cells stably expressing the IP receptor (CHO-IP) using the Perkin Elmer AlphaScreen assay. This technology measures the endogenous production of cAMP, in a non-radioactive luminescence proximity homogenous assay. A biological reaction occurs between streptavidin coated donor beads, biotinylated cAMP and anti-cAMP acceptor beads, bringing the donor and acceptor beads close enough together so that upon excitation a fluorescence signal is produced. On production of endogenous cAMP, competition between the biotinylated cAMP and cellular-derived cAMP causes a reduction in the fluorescent signal. The reduction in signal is proportional to the amount of cAMP being produced, thus it is possible to quantify the amount of cAMP being produced on stimulation with agonist.
Test and reference compounds are prepared at 100× [final] in 100% DMSO, and diluted 1:3 using a Biomek Fx (Beckman Coulter). This is followed by an intermediate dilution to give 5× [final] in assay buffer (HBSS containing 5 mM HEPES, 0.1% (w/v) BSA). 5 μL of 5× [final] test compounds, reference compounds and buffer/DMSO control are then transferred to a 384-well white OptiPlate, containing 20 μL CHO-IP cell suspension (15,000 cells/well, prepared from frozen), and plate is incubated at room temperature for 1 hour. A cAMP standard curve is constructed for each experiment (concentration range of 10000 nM to 0.001 nM, in assay buffer) and 25 μL of each concentration added to the last two columns of the assay plate. The incubation is terminated by the addition of lysis buffer (dH2O; 0.3% (v v^−1) Tween-20) containing 20 units mL^−1 streptavidin coated donor beads and biotinylated cAMP (pre-incubated for 30 minutes) and 20 units mL^−1 anti-cAMP acceptor beads, which are added to the lysis buffer just before addition to the assay plate. The assay plate is then incubated at room temperature in the dark, for 60 minutes with gentle shaking, and read on the Envision plate reader (Perkin Elmer).
The raw data of the reference compounds, test compounds and controls are converted into cAMP concentrations, using the cAMP standard curve, in Graph Pad Prism (Graph Pad Software Inc). EC50 as well as maximal values of the agonist curves are determined using a 4-parameter logistic equation. The % maximum response values of all test compounds are determined using the top of the treprostinil concentration-response curve.

T1 sequence (P43119 whole entry): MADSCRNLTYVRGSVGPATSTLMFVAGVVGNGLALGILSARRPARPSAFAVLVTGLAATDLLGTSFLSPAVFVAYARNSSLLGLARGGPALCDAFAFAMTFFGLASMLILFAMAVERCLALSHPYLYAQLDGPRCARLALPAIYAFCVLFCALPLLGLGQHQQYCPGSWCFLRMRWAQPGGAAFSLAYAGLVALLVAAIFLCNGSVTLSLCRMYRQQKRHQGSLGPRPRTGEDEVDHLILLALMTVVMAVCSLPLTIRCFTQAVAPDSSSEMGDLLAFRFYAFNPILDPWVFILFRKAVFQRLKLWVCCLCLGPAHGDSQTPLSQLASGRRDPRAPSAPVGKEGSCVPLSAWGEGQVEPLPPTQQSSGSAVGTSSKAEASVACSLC

pEC50 | Molecule
9.15 | Cc1ccc(-c2nc3c(nc2-c2ccc(C)cc2)N(CCCCCCC(=O)NS(C)(=O)=O)CCC3)cc1 [Example 13.4, 7-(2,3-Di-p-tolyl-7,8-dihydropyrido[2,3-b]pyrazin-5(6H)-yl)-N-(methylsulfonyl) heptanamide]
8.30 | Cc1ccc(-c2nc3c(nc2-c2ccc(C)cc2)N(CCCCCCC(=O)NS(=O)(=O)C(C)C)CCC3)cc1 [Example 13.5, 7-(2,3-Di-p-tolyl-7,8-dihydropyrido[2,3-b]pyrazin-5(6H)-yl)-N-(isopropylsulfonyl) heptanamide]
8.57 | Cc1ccc(-c2nc3c(nc2-c2ccc(C)cc2)N(CCCCCCC(=O)O)CC(N2CCCCC2)C3)cc1 (centres unmarked) [Example 14]
9.40 | Cc1ccc(-c2nc3c(nc2-c2ccc(C)cc2)C(C)(O)CCN3CCCCCCC(=O)O)cc1 (centres unmarked) [Example 16, 7-(8-Hydroxy-8-methyl-2,3-di-p-tolyl-7,8-dihydropyrido[2,3-b]pyrazin-5(6H)-yl)heptanoic acid]
9.05 | (R)-6-(2,3-di-p-tolyl-5,6,7,8-tetrahydropyrido[2,3-b]pyrazin-6-yl)hexanoic acid or (S)-6-(2,3-di-p-tolyl-5,6,7,8-tetrahydropyrido[2,3-b]pyrazin-6-yl)hexanoic acid [1(i)]
